How the values were obtained:
[1] = adults relative to children; cited from earlier work
[2] = molecular target: T1, OR51E1 (Homo sapiens, UniProt Q8TCB6); assay: Olfactory receptor cAMP signaling in transfected HEK293T cells exposed to menthol; format: cell-based; conditions: 51E1, menthol 1 nM to 1 mM, cAMP production
T1 construct: expressed in transfected cells; host or cells: HEK293T
T1 sequence (Q8TCB6 1-318): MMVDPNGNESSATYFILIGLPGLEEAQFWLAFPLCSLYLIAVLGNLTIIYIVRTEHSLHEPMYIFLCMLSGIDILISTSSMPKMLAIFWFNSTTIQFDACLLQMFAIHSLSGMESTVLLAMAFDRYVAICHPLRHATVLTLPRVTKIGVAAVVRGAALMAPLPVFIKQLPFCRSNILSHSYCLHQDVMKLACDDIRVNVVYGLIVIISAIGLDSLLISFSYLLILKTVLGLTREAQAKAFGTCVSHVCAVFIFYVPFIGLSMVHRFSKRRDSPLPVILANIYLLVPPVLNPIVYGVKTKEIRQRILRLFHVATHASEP
Procedure: (§1) When creating an age-related flavor profile for menthol, identification of the olfactory receptors that respond to menthol may be accomplished by transfecting human olfactory receptor cDNA sequences in HEK293T co-expressing accessory factors for odorant receptor expression (see, e.g., Saito, H., et al., Cell 119:679-691 (2004)). Transfected cells may then be exposed to serial dilutions of menthol from 1 nM to 1 mM in growth medium, and receptor signaling may be measured by cAMP production in the cell using a commercial assay.
(§2) Next, positive olfactory receptors may be identified by increased signaling when exposed to at least one menthol concentration compared to control cells that have not been transfected. In each case, an EC50 is defined for the receptor versus menthol. Olfactory receptors OR1G1, 8K3, 2W1, 2J2, 11H7P and 51E1 have been identified by this method as menthol-sensitive olfactory receptors.

[3] = molecular target: T2, OR2J2 (Homo sapiens, UniProt O76002); assay: as above; format: cell-based; conditions: 2J2, menthol 1 nM to 1 mM, cAMP production
T2 construct: expressed in transfected cells; host or cells: HEK293T
T2 sequence (O76002 1-312): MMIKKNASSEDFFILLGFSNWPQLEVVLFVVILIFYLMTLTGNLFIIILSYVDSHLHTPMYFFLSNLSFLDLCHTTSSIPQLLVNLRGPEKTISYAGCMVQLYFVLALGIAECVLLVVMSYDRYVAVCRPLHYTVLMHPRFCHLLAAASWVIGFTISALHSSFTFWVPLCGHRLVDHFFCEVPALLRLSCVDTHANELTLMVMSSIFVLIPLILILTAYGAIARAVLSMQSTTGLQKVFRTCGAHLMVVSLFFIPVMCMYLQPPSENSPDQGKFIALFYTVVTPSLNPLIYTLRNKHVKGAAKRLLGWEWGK
Procedure: as §1, §2

[4] = molecular target: T3, OR2W1 (Homo sapiens, UniProt Q9Y3N9); assay: as above; format: cell-based; conditions: 2W1, menthol 1 nM to 1 mM, cAMP production
T3 construct: expressed in transfected cells; host or cells: HEK293T
T3 sequence (Q9Y3N9 1-320): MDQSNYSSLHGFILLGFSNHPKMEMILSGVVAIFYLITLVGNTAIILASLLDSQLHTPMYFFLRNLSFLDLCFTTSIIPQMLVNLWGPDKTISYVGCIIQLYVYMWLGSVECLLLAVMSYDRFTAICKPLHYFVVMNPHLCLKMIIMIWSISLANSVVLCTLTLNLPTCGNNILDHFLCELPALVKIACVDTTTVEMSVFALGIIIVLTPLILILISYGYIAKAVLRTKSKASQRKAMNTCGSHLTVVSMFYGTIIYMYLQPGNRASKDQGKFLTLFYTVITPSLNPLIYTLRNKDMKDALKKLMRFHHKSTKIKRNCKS
Procedure: as §1, §2

[5] = molecular target: T4, OR11H7P (Homo sapiens, UniProt Q8NGC8); assay: as above; format: cell-based; conditions: 11H7P, menthol 1 nM to 1 mM, cAMP production
T4 construct: expressed in transfected cells; host or cells: HEK293T
T4 sequence (Q8NGC8 1-314): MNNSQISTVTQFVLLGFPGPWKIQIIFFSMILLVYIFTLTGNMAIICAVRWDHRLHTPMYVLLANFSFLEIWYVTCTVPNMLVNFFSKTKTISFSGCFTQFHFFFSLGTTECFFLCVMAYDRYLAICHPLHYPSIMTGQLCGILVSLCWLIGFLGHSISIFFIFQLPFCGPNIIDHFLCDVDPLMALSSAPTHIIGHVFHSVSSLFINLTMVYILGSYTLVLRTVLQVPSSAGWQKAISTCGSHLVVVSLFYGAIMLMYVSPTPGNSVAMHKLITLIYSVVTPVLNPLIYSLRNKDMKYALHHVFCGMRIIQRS
Procedure: as §1, §2

[6] = molecular target: T5, OR8K3 (Homo sapiens, UniProt Q8NH51); assay: as above; format: cell-based; conditions: 8K3, menthol 1 nM to 1 mM, cAMP production
T5 construct: expressed in transfected cells; host or cells: HEK293T
T5 sequence (Q8NH51 1-312): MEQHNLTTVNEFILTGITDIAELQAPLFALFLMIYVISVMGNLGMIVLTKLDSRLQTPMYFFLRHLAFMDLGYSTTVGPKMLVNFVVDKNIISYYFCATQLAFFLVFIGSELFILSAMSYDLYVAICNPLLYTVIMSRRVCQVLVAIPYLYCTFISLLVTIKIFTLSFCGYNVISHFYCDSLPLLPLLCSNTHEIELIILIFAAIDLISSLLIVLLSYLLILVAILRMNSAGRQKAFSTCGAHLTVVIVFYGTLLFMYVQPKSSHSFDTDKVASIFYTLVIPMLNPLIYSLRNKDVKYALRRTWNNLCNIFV
Procedure: as §1, §2

[7] = molecular target: T6, OR1G1 (Homo sapiens, UniProt P47890); assay: as above; format: cell-based; conditions: menthol 1 nM to 1 mM, cAMP production
T6 construct: expressed in transfected cells; host or cells: HEK293T
T6 sequence (P47890 1-313): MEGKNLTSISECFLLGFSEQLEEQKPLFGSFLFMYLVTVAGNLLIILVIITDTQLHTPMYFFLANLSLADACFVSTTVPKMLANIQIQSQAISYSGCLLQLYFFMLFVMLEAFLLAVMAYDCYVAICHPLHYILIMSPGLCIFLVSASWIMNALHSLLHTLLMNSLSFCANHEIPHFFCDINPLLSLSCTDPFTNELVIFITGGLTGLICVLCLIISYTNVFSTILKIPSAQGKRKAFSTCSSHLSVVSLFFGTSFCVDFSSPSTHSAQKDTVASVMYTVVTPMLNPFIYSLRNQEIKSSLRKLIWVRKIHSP
Procedure: as §1, §2

In the case of `CC1CCC(C(C)C)C(O)C1` (stereo not shown) [menthol], the “menthol concentration adults require to perceive the same level of intensity as children” value [1] is listed as “approximately two”, the “receptor identified as menthol-sensitive (increased signaling vs non-transfected control cells)” value [2] is listed as “menthol-sensitive” and the “receptor identified as menthol-sensitive (increased signaling vs non-transfected control cells)” value [3] is listed as “menthol-sensitive”. The “receptor identified as menthol-sensitive (increased signaling vs non-transfected control cells)” value [4] was “menthol-sensitive”, the “receptor identified as menthol-sensitive (increased signaling vs non-transfected control cells)” value [5] was “menthol-sensitive” and the “receptor identified as menthol-sensitive (increased signaling vs non-transfected control cells)” value [6] was “menthol-sensitive”. The “receptor identified as menthol-sensitive (increased signaling vs non-transfected control cells)” value [7] was “menthol-sensitive”.

Reference: patent US20220110886A1, “OPTIMIZATION OF SCENT OR FLAVOR COMPOSITIONS” (Aromyx Corporation, priority 2019, published 2022)
